Laboratory results as given in patent US5204343A, “5H-benzodiazepin derivative” (Egis Gyogyszergyar, priority 1990, dated 1993).
Entries after “also recorded” stand apart in the source; their conditions may differ.

Columns and labels:
[1] = Muscle relaxant and anticonvulsive effects; conditions: in vivo
rats = assay: Anxiolytic effect on rats ("lick-conflict" test of Vogel); format: in vivo; conditions: for Numbers of shocks tolerated: 50 mg/kg i.p., pretreatment 30 minutes, vehicle 5.7 ± 0.6 (formula (I) series), 5.1 ± 0.9 (girisopam series); for number of tolerated shocks, result in words: same dose (50 mg/kg i.p.)
Procedure: The anxiolytic effect was investigated according to the so-called "lick-conflict" test of Vogel [Psychopharmacol. 21, 1 (1971)]. Time of pretreatment: 30 minutes.

Acute toxicity, rat = assay: Acute toxicity, rat; parameters: species or system rat (male, CFY strain); conditions: in vivo, ip, 14 days observation
Procedure: (§1) The experiments were carried out on male mice belonging to the CFLP strain (body weight: 20-22 g) and on male rats belonging to the CFY strain. […] The LD50 values were determined with the aid of the method of Lichtfield and Wilcoxon [J. Pharmacol. Exp. Ther. 96, 99 (1949)]. The compounds were suspended in 2 to 5% Tween 80. The animals were treated in volumes of 0.1 ml/10 g (mice) and 0.5 ml/100 g (rats).

Acute toxicity, mouse = assay: Acute toxicity, mouse; parameters: species or system mouse (male, CFLP strain); conditions: in vivo, 14 days observation
Procedure: as §1

[2] = Acute toxicity, overall statement; format: in vivo; conditions: vs girisopam
Procedure: as §1

[3] = Pharmacological experiments, overall (spectrum, potency, therapeutical index); format: in vivo; conditions: vs girisopam
mice [4] = assay: Narcosis potentiating effect on mice (hexobarbital-Na); format: in vivo; conditions: for Prolongation of narcosis time: hexobarbital-Na 50 mg/kg i.v.
Procedure: The prolongation of the narcosis time was related to the sleeping time of the control group treated with a 50 mg/kg i.v. dose of hexobarbital-Na. The test compound was administered […].

mice [5] = assay: Behaviour test on mice (method of Irwin); format: in vivo
Text: The effects of the compound of formula (I) and the reference compound (girisopam) were examined by the method of Irwin [Psychopharmacol. 13, 222 (1968)].

[6] = Anxiolytic, antiaggressive and antidepressant effects, overall statement; format: in vivo; conditions: vs girisopam
mice [7] = assay: Antiaggressive effect on mice ("fighting behaviour" test of Tedeschi et al.); format: in vivo; conditions: Mus musculus, confidence limit in separate column
Text: The antiaggressive effect was examined by the method of Tedeschi et al. (the so-called "fighting behaviour" test) [J. Pharm. Exp. Ther. 25, 28 (1959)].

[8] = vs Grandaxin (tofisopam); cited from earlier work

| SMILES | Numbers of shocks tolerated (rats) | number of tolerated shocks, result in words (rats) | LD50 at 336 h (Acute toxicity, rat) [mg/kg] | LD50 at 336 h (Acute toxicity, mouse; ip) [mg/kg] | LD50 at 336 h (Acute toxicity, mouse; po) [mg/kg] | Prolongation of narcosis time (mice [4]; 25 mg/kg p.o.) [%] | Prolongation of narcosis time (mice [4]; 50 mg/kg p.o.) [%] | spontaneous motor activity (SMA) after 60 minutes (mice [5]; 100 mg/kg i.p.) | spontaneous motor activity (SMA) after 120 minutes (mice [5]; 100 mg/kg i.p.) | spontaneous motor activity (SMA) after 180 minutes (mice [5]; 100 mg/kg i.p.) | spontaneous motor activity (SMA) after 60 minutes (mice [5]; 200 mg/kg p.o.) | spontaneous motor activity (SMA) after 120 minutes (mice [5]; 200 mg/kg p.o.) | spontaneous motor activity (SMA) after 180 minutes (mice [5]; 200 mg/kg p.o.) | ED50 (mice [7]) [mg/kg] | also measured |
| --- | --- | --- | --- | --- | --- | --- | --- | --- | --- | --- | --- | --- | --- | --- | --- |
| COc1cc2c(cc1OC)C(c1cccc(Cl)c1)=NN=C(CO)C2 [Compound of formula (I), 1-(3-chlorophenyl)-4-hydroxymethyl-7,8-dimethoxy-5H-2,3-benzodiazepine] | 13.8 ± 3.7 | significant increase on the number of tolerated shocks | > 1500 | 1310 | > 2000 | 232 | 444 | SMA.dwnarw. | SMA.dwnarw. | SMA.dwnarw. | SMA.dwnarw. | SMA.dwnarw. | SMA.dwnarw. | 13.8 | muscle relaxant and anticonvulsive effects [1]: do not show muscle relaxant and anticonvulsive effects; acute toxicity compared with reference compound [2]: considerably more favourable on both kinds of animals than that of the reference compound; also recorded: their acute toxicity is superior; spectrum of activity and potency [3]: as favourable as those of the reference compound (girisopam); therapeutical index compared with reference compound [3]: more favourable than the reference compound; Prolongation of narcosis time (mice [4]; 12.5 mg/kg p.o.): 145%; narcosis potentiating activity compared with reference compound (mice [4]; p.o. doses 25 mg/kg and 50 mg/kg, vs girisopam): practically as significant as that of the reference compound (girisopam) or even superior; decrease of spontaneous motor activity, compared with reference compound (mice [5]; mice, vs girisopam): decreases the spontaneous motor activity on mice to the same degree as the reference compound; anxiolytic, antiaggressive and antidepressant effects [6]: as strong anxiolytic, antiaggressive and antidepressant effects as girisopam |
| COc1cc2c(cc1OC)C(c1cccc(Cl)c1)=NN=C(C)C2 [Girisopam, 1-(3-chlorophenyl)-4-methyl-7,8-dimethoxy-5H-2,3-benzodiazepine, reference compound] | 19.0 ± 2.3 | significant increase on the number of tolerated shocks | 670 | 330 | 1250 | 305 | 392 | SMA.dwnarw. | SMA.dwnarw. | SMA.dwnarw. | SMA.dwnarw. | SMA.dwnarw. | SMA.dwnarw. | 16 | effectiveness compared with Grandaxin [8]: five times more effective than the latter |
